From publication PMC12744750 (Plant Communications, 2025)
Ends that are not written are not given here.

Tests used:
ETR1:HA = assay: Co-immunoprecipitation of PLS:GFP and ETR1:HA in N. benthamiana leaves; format: binding, Arabidopsis; details: Co-IP, western blotting, 3 days after infiltration
Source text: To investigate the interaction between the PLS peptide and the ethylene receptor ETR1, two DNA constructs were created by Gateway cloning. The […] PLS gene (without the stop codon) was inserted into the pEarlyGate103 (pEG103) destination vector, which contained the pro35S promoter and a C-terminal GFP tag, to produce a vector containing pro35S::PLS:GFP DNA. The ETR1 cDNA was inserted into the pEarlyGate301 (pEG301) vector to create a pro35S::ETR1:HA construct to express an ETR1 protein with a C-terminal HA tag. pro35S::GFP was used as a control. The primers used to clone ETR1 and PLS are found in supplemental Table 9.
Constructs were transiently expressed in N. benthamiana (tobacco) leaves as described previously ([Voinnet et al., 2003]). Experiments were replicated up to five times. Competent Agrobacterium tumefaciens GV3101 cells were transformed with the desired plasmid containing the gene of interest and injected with a syringe. The plants were approximately 7–10 weeks old; the chosen leaves were healthy and 3–6 cm in length, and 3 to 4 leaves were infiltrated with each construct. […]
SDS–PAGE was used to separate protein fragments. The complexed proteins from the pulldown assay were analyzed on 10%–12% acrylamide gels. […] The horseradish peroxidase conjugated to the secondary antibody was detected using X-ray film. […]

[1] = system: root epidermal cells, endomembrane markers; assay: Subcellular localization by confocal microscopy; format: cell-based, Arabidopsis
Source text: (§1) proPLS::PLS:GFP comprises a 1.5-kb PLS promoter sequence ([Casson et al., 2002]) fused to the PLS open reading frame in pMDC107 (obtained from Prof. P.J. Hussey, Durham University) as a C-terminal GFP translational fusion. The PLS ORF with its 1.5-kb promoter was amplified from the TOPO 2.1 vector, which contained the PLS gene sequence with promoter ([Casson et al., 2002]); the primers used for cloning are listed in supplemental Table 9. pls mutant plants were transformed using the method of [Clough and Bent (1998)]. proPLS::GFP plants were generated using the 1.5-kb PLS promoter ([Casson et al., 2002]) fused to GFP in a wild-type background. p35S::GFP seedlings were obtained from Dr. Piers Hemsley, Durham University. […] Seedlings were scanned to create a digital image, and root lengths of the seedlings were measured using ImageJ. […]
CSLM images for propidium iodide and GFP were obtained using a Leica SP5 TCS confocal microscope as described previously ([Rowe et al., 2016]). proPLS::PLS:GFP, proPLS::GFP, and pro35S::GFP seedlings were grown for 7 days on Phytagel ½ MS10 medium before ∼25 mm of the root tip was removed and mounted in dH2O prior to imaging. […] For standard photomultiplier tubes, a laser power of 21% and a smart gain of 800–1000 mV were used, depending on the intensity of the fluorescence. […]

pls mutant = assay: Complementation of pls mutant by proPLS::PLS:GFP transgene; format: in vivo, Arabidopsis thaliana; details: single-copy proPLS::PLS:GFP in pls background
Source text: as §1, with “University. Seedlings of Arabidopsis thaliana ecotype C24 or Col-0, pls mutants, and transgenic PLS overexpressers, all from lab stocks, were grown on solid sterile half-strength (2.2 g/l) Murashige and Skoog medium (Sigma-Aldrich) containing 10 g/l sucrose (half-strength [½] MS10 medium) solidified with 2.5 g/l Phytagel (Sigma-Aldrich) in 90-mm Petri dishes (Sarstedt, Leicester, UK) at 21°C under a 16-h photoperiod as described previously ([Casson et al., 2002]; [Chilley et al., 2006]).” for “University.”

pls mutant primary root = assay: Root length of pls mutant under exogenous copper; format: in vivo, Arabidopsis thaliana; details: 0-50 μM CuSO4, 12 days, n = 18
Source text: as §1
Root length (n = 18 from samples grown on 3 independent plates) was measured after 12 days using ImageJ. […]

Row | Substance | binding of ETR1:HA (ETR1:HA) | co-localization with RFP:HDEL (ER lumen) ([1]; proPLS::PLS:GFP plants) | co-localization with ER Tracker Red ([1]; proPLS::PLS:GFP stably transformed Arabidopsis) | transformants fully complementing pls mutant (pls mutant) | copper hypersensitivity of pls mutant (pls mutant primary root)
1 | PLS:GFP: fusion protein of PLS with C-terminal GFP (MKPRLCFNFRRRSISPCYISISYLLVAKLFKLFKIH-{GFP}; cysteine pairing not given here) | ETR1:HA bound to PLS:GFP | co-localized with the ER lumen–targeted red fluorescent protein RFP:HDEL | co-localized with the ER marker dye ER-Tracker Red | four | 
2 | copper |  |  |  |  | not copper hypersensitive
